Measured values published in ChEMBL document CHEMBL1201862, “PubChem BioAssay data set” (2004).
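These data come from cells grown in 96-well plates and exposed to compound for 48 hours at five concentrations. Here, GI50 denotes the concentration required for 50% inhibition of growth.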 Calls of active or inactive are those of the source. Cut-off read from the data, not from the text of the source: active = GI50 up to about 1.1 µM and inactive = higher.

How the values were obtained:
Assay in all cases: growth of human tumour cells (NCI), 48 h
[1] = tested on: HT-29
[2] = tested on: A498
[3] = tested on: SF-539
[4] = tested on: CCRF-CEM
[5] = tested on: SK-MEL-5
[6] = tested on: RPMI-8226
[7] = tested on: TK-10
[8] = tested on: HOP-62
[9] = tested on: SK-OV-3
[10] = tested on: SN12C
[11] = tested on: OVCAR-4
[12] = tested on: SF-295
[13] = tested on: NCI-H23
[14] = tested on: Hs-578T
[15] = tested on: K562
[16] = tested on: LOX IMVI
[17] = tested on: COLO 205
[18] = tested on: CAKI-1
[19] = tested on: DMS-273
[20] = tested on: DLD-1

Measured: GI50

O=C1c2ccccc2C(=O)c2c(NCCCNCCO)ccc(NCCCNCCO)c21
inactive: [1] 4.82 µM | [2] 15.9 µM | [3] 4.24 µM | [4] 3.08 µM | [5] 13.4 µM | [6] 10.6 µM | [7] 16 µM | [8] 5.35 µM | [9] 14.6 µM | [10] 4 µM | [11] 9.82 µM | [12] 7.33 µM | [13] 10.7 µM | [14] 5.52 µM | [15] 2.64 µM | [16] 3.5 µM | [17] 5.85 µM | [18] 10 µM

c1ccc2c(c1)CCc1c(-c3ccncc3)n[nH]c1-2
inactive: [1] 44.6 µM | [2] 25.9 µM | [3] 24.8 µM | [4] 14.2 µM | [5] 18 µM | [6] 26.5 µM | [19] 22.9 µM | [7] 29.8 µM | [8] 28.4 µM | [9] 33.4 µM | [10] 43.5 µM | [12] 45.7 µM | [13] 19.4 µM | [15] 48.2 µM | [16] 23.3 µM | [20] 41.9 µM | [17] 25.7 µM | [18] 19.8 µM

CCOC(=O)c1c2cccccc2n2c(=O)cc(C)nc12
inactive: [1] > 100 µM | [2] > 100 µM | [3] > 100 µM | [4] > 100 µM | [6] > 100 µM | [19] > 100 µM | [7] > 100 µM | [8] > 100 µM | [10] > 100 µM | [11] > 100 µM | [12] > 100 µM | [13] > 100 µM | [15] > 100 µM | [16] > 100 µM | [17] > 100 µM | [18] > 100 µM

c1ccc(C2N=NN(c3ccccc3)C2N2CCCCC2)cc1 (centres undefined)
inactive: [1] > 100 µM | [3] 55.8 µM | [4] > 100 µM | [5] > 100 µM | [6] > 100 µM | [7] > 100 µM | [8] 42.9 µM | [9] 38.6 µM | [10] > 100 µM | [11] > 100 µM | [12] 33.8 µM | [13] > 100 µM | [15] > 100 µM | [16] > 100 µM | [20] > 100 µM | [17] > 100 µM | [18] > 100 µM

Nc1nc(N)c(N=O)c(Nc2ccc(I)cc2)n1
inactive: [3] 25.5 µM | [4] 13.8 µM | [5] 13.5 µM | [6] 20.9 µM | [19] 16.5 µM | [7] 31 µM | [8] 16.6 µM | [9] 5.33 µM | [10] 10.6 µM | [12] 28.6 µM | [13] 18.2 µM | [15] 14.1 µM | [16] 9.12 µM | [20] 10 µM | [17] 18.6 µM

Cn1c(=O)c(C2c3ccccc3Oc3c2c(=O)n(C)c2ccccc32)c(O)c2ccccc21 (centres undefined)
inactive: [1] 92.7 µM | [3] 76.2 µM | [5] > 100 µM | [6] 38.5 µM | [19] 68.7 µM | [7] 33.3 µM | [8] > 100 µM | [9] 63.8 µM | [10] 46.7 µM | [11] 86.7 µM | [12] 54.5 µM | [13] 40.6 µM | [15] 51.2 µM | [16] 37.9 µM | [20] 50.9 µM | [17] 30.6 µM | [18] 46.9 µM

CC(C)(C)c1cc(CCC(=O)Nc2ccc(Cl)cc2Cl)nc(N)n1
inactive: [1] > 100 µM | [3] > 100 µM | [4] > 100 µM | [5] > 100 µM | [8] > 100 µM | [9] > 100 µM | [10] > 100 µM | [11] > 100 µM | [12] > 100 µM | [13] > 100 µM | [15] > 100 µM | [16] > 100 µM | [20] > 100 µM | [17] > 100 µM | [18] > 100 µM

CC(=O)O[C@H]1CC[C@@]2(C)C(=CC[C@H]3[C@@H]4C[C@H](N5CCOCC5)[C@H](OC(C)=O)[C@@]4(C)CC[C@@H]32)C1
inactive: [1] 32.4 µM | [2] > 100 µM | [3] 78 µM | [4] > 100 µM | [5] > 100 µM | [6] 92.5 µM | [7] > 100 µM | [8] > 100 µM | [9] > 100 µM | [10] > 100 µM | [11] > 100 µM | [12] > 100 µM | [13] > 100 µM | [14] > 100 µM | [15] 25.4 µM | [16] > 100 µM | [17] > 100 µM | [18] > 100 µM
